Tests used:
Assay type in all cases: cell-based, human
[1] = tested on: cancer organoids derived from colorectal cancer patients; assay: Overall efficacy (organoid area change, HCS) in co-culture of cancer organoids, CD8+ T cells and M1; details: Groups 1, 3, 6 and 8: cancer organoids:M1 fixed 1:1, CD8+ T cell ratio changes; 10 nM; 72 hours
Source text: In order to confirm whether the screening system composed of cancer organoids, CD8+ T cells and M1 as confirmed in Example 1.1 can be used to evaluate the efficacy of a drug, the death rate of cancer organoids by phagocytosis was observed after treating the system with an anti-PD-L1 antibody atezolizumab previously used as an immuno-anticancer drug, anti-CD47 antibody and a combination thereof.
Atezolizumab activates CD8+ T cells by binding to PD-L1 on cancer cells and blocking the PD-1/PD-L1 mechanism, and anti-CD47 antibody activates macrophages by binding to […] and blocking the SIRP-a/CD47 mechanism. […]
Then, they were co-cultured, and treated with 10 nM of Atezolizumab (Selleck, #A2004) which is anti-PD-L1 antibody and/or 10 nM of anti-CD47 antibody. After that, the death rate of cancer organoids or M1 was analyzed at each ratio. Herein, the ratio of the CD8+ T cells and M1 was tested in a narrower range than the ratio applied in Example 1.1, and the changes in organoid area for 72 hours after drug treatment was analyzed by HCS (High-Content Screening). After 72 hours from drug treatment, the overall efficacy was evaluated by calculating the change in the organoid area of the drug-treated group compared to the organoid area of the non-treated group.

lung cancer organoids [2] = assay: Growth and death rate of lung cancer organoids co-cultured with CD8+ T cells and DCs
Method: (§1) Specifically, in order to establish a co-culture system in which cancer organoids, cytotoxic T cells (hereinafter referred to as ‘CD8+ T cells’) and dendritic cells (hereinafter referred to as ‘DC’) coexist, the inventors set a mixing ratio satisfying co-culture conditions under which (1) cancer organoids grow properly and (2) drug efficacy is well observed. […] Herein, the number of organoids or cells was set to 1 for 5.0×10^3.
(§2) Cancer organoids were prepared to have a 3D structure by isolating colorectal cancer or lung cancer tissues obtained from patients into single cells and culturing them together with ECM (extracellular matrix). The formed cancer organoids were confirmed to be tumors through pathological analysis, and used after being isolated into single cells using Tryp-LE.
(§3) CD8+ T cells isolated from PBMCs were used. PBMCs were isolated from blood obtained from donors by using Ficoll, and CD8+ T cells were isolated through MACS after a T cell activation process.
(§4) DCs differentiated from iPSCs were used, and DCs were differentiated from the H9 cell line using a general method known in the art.
(§5) Specifically, for the co-cultures of cancer organoids, CD8+ T cells and DCs according to the mixing ratio in Table 7 above, those not treated with the drug were set as the control group (hereinafter referred to as ‘drug-untreated group’), and those treated with an atezolizumab targeting CD8+ T cells as an exemplary drug were set as the experimental group (hereinafter referred to as ‘drug-treated group’). Drugs were treated immediately after the start of co-culture, and the growth rate of cancer organoids was measured immediately after the start of the co-culture (0 h), after 24 hours (24 h), after 48 hours (48 h) and after 72 hours (72 h), respectively. The death rate was analyzed by the following method through the measured growth rate.

[3] = tested on: colorectal cancer organoids; assay: Growth and death rate of colorectal cancer organoids co-cultured with TILs
Method: (§6) Specifically, the inventors set a mixing ratio satisfying co-culture conditions under which (1) cancer organoids grow properly and (2) drug efficacy is well observed. Cancer organoids were prepared using cancer cells isolated from tumor tissues of lung cancer or colorectal cancer patients, and TILs obtained by co-culture with cancer organoids for 14 days according to Example 1.1 were used.
(§7) Herein, the number of organoids or TILs was set to 1 for 5.0×10^3.
(§8) In addition, for the co-cultures of cancer organoids and TILs according to the ratio above, those not treated with the drug were set as the control group (hereinafter referred to as ‘drug-untreated group’), and those treated with atezolizumab, which is currently marketed and used for a cancer treatment, as an exemplary drug were set as the experimental group (hereinafter referred to as ‘drug-treated group’). After co-culturing for 72 hours, the growth rate was measured immediately after the start of the co-culture (0 h), after 24 hours (24 h), after 48 hours (48 h) and after 72 hours (72 h), respectively, and the death rate was analyzed by the following method through the measured growth rate: Cancer organoid death rate (%)=[1−(growth rate of cancer organoids in the drug-treated group*)/(growth rate of cancer organoids in the drug-untreated group**)]×100

[4] = tested on: colorectal cancer organoids; assay: Death rate of colorectal cancer organoids co-cultured with CD8+ T cells and Tregs; details: 72 h
Method: (§9) Herein, the number of organoids or cells was set to 1 for 5.0×10^3.
(§10) Cancer organoids were prepared using stem cells isolated from tumor tissue of colorectal cancer or lung cancer patients. The isolated stem cells were mixed with ECM (extracellular matrix) to grow into a 3D structure to make a dome, and then organoids were formed and used through culture. CD8+ T cells and Tregs were obtained from blood obtained from colorectal cancer or lung cancer patients. Immune cells present in the blood were differentiated, and CD8+ and Treg cells were isolated from the differentiated immune cells using a MACS (magnetic activated cell sorting) method.
(§11) Specifically, for the co-cultures of cancer organoids, CD8+ T cells and Tregs according to the mixing ratio in Table 6 above, those not treated with the drug were set as the control group (hereinafter referred to as ‘drug-untreated group’), and those treated with an atezolizumab targeting CD8+ T cells or an anti-TIGIT antibody targeting CD8+ T cells or Tregs as an exemplary drug were set as the experimental group (hereinafter referred to as ‘drug-treated group’). After co-culturing them for 72 hours, the growth rate was measured after 72 hours of drug treatment (72 h), and the death rate was analyzed by the following method through the measured growth rate.

lung cancer organoids [5] = assay: Growth and death rate of lung cancer organoids co-cultured with TILs
Method: as §6, §7, §8

lung cancer organoids [6] = assay: Death rate of lung cancer organoids co-cultured with CD8+ T cells and Tregs; details: 72 h
Method: as §9, §10, §11

[7] = tested on: colorectal cancer organoids; assay: Growth and death rate of colorectal cancer organoids co-cultured with CD8+ T cells and DCs
Method: as §1, §2, §3, §4, §5

[8] = colorectal cancer organoids:TILs 1:0.5
[9] = colorectal cancer organoids:TILs 1:1.5
[10] = lung cancer organoids:TILs 1:0.5
[11] = lung cancer organoids:TILs 1:1.5

How did the “growth inhibition and death of cancer organoids (overall efficacy)” value [1] turn out when atezolizumab was run?
Its value is “high”.

What about the “death rate of cancer organoids, maximum level” value (“death rate … maximum level” below) (lung cancer organoids [2]; lung cancer organoids:CD8+ T cells 1:0.5, DC 0.5 to 5, 72 h) of the same substance?
Its value is “about 5%”.

What about the “maximum death rate of cancer organoids” value (lung cancer organoids [2]; lung cancer organoids:CD8+ T cells 1:1, DC 0.5 to 5, 72 h) of the same substance?
The value was “about 10%”.

And the “growth of cancer organoids” value (lung cancer organoids [2]; lung cancer organoids:CD8+ T cells:DCs 1:0.5:0.5 to 5 or 1:1:0.5 to 1)?
The value was “did not significantly inhibit the growth”.

And the “growth of cancer organoids” value (lung cancer organoids [2]; lung cancer organoids:CD8+ T cells:DCs 1:1:5 or 1:3:0.5 to 5)?
The value was “inhibited the growth”.

What about the “death rate of colorectal cancer organoids” value [3, 8] of the same substance?
Its value is “about 5%”.

And the “response of colorectal cancer organoids (growth rate and death rate vs control group)” value [3, 8]?
The value was “did not respond to the drug”.

And the “anticancer effects on colorectal cancer organoids (growth, death)” value [3, 9]?
Its value is “inhibiting the growth and increasing death”.

What about the “death rate of colorectal cancer organoids” value [3, 9] of the same substance?
Its value is “about 10%”.

What about the “death rate of colorectal cancer organoids” value ([3]; colorectal cancer organoids:TILs 1:3) of the same substance?
The value was “about 5%”.

And the “death rate … maximum level” value ([4]; colorectal cancer organoids:CD8+ T cells 1:1, Treg 0.5 to 3)?
Its value is “about 10%”.

And the “death rate of cancer organoids” value ([4]; colorectal cancer organoids:CD8+ T cells 1:3, with Tregs)?
Its value is “about 25%”.

What about the “death rate of cancer organoids” value ([4]; colorectal cancer organoids:CD8+ T cells 1:3, without Tregs) of the same substance?
The value was “about 26%”.

What about the “death rate of cancer organoids” value ([4]; colorectal cancer organoids:Tregs 1:3, without CD8+ T cells) of the same substance?
The value was “about 2%”.

And the “death rate of lung cancer organoids” value (lung cancer organoids [5]; [10])?
The value was “about 5%”.

And the “response of lung cancer organoids (growth rate and death rate vs control group)” value (lung cancer organoids [5]; [10])?
Its value is “did not respond to the drug”.

What about the “anticancer effects on lung cancer organoids (growth, death)” value (lung cancer organoids [5]; [11]) of the same substance?
The value was “inhibiting the growth and increasing death”.

What about the “death rate of lung cancer organoids” value (lung cancer organoids [5]; [11]) of the same substance?
The value was “about 20%”.

And the “death rate of lung cancer organoids” value (lung cancer organoids [5]; lung cancer organoids:TILs 1:3)?
Its value is “about 5%”.

And the “death rate … maximum level” value (lung cancer organoids [6]; lung cancer organoids:CD8+ T cells 1:1, Treg 0.5 to 3)?
The value was “about 10%”.

What about the “death rate of cancer organoids” value (lung cancer organoids [6]; lung cancer organoids:CD8+ T cells 1:3, with Tregs) of the same substance?
The value was “about 25%”.

What about the “death rate of cancer organoids” value (lung cancer organoids [6]; lung cancer organoids:CD8+ T cells 1:3, without Tregs) of the same substance?
Its value is “about 27%”.

What about the “death rate of cancer organoids” value (lung cancer organoids [6]; lung cancer organoids:Tregs 1:3, without CD8+ T cells) of the same substance?
The value was “about 1%”.

And the “death rate … maximum level” value ([7]; colorectal cancer organoids:CD8+ T cells 1:0.5, DC 0.5 to 5, 72 h)?
The value was “about 5%”.

And the “maximum death rate of cancer organoids” value ([7]; colorectal cancer organoids:CD8+ T cells 1:1, DC 0.5 to 5, 72 h)?
The value was “about 10%”.

What about the “growth of cancer organoids” value ([7]; colorectal cancer organoids:CD8+ T cells:DCs 1:0.5:0.5 to 5) of the same substance?
Its value is “did not significantly inhibit the growth”.

And the “growth of cancer organoids” value ([7]; colorectal cancer organoids:CD8+ T cells:DCs 1:1 to 3:0.5 to 5)?
The value was “inhibited the growth”.
